Entries after “also recorded” stand apart in the source; their conditions may differ.
Tested on: duck hepatocytes
Test: Induction of steatosis in cultured duck hepatocytes by fatty acid incubation
Format: cell-based

percentage of steatotic hepatocytes (2 μM linoleic acid, duck hepatocytes (FIG. 16B)): above 85%
SMILES: CCCCC/C=C\C/C=C\CCCCCCCC(=O)O [linoleic acid]
dose response: linoleic acid concentration versus percentage of hepatocytes having steatosis (0, 0.1, 0.25, 0.5, 1, 2 μM linoleic acid (FIG. 16B)): corresponding increase in the percentage of hepatocytes with steatosis
induction of steatosis (accumulation of intracellular lipid-containing vesicles) (2 μM linoleic acid vs untreated control, duck hepatocytes (FIG. 16A)): successful induction of steatosis; also recorded: successfully induced to undergo steatosis
